These are literature values, as cited in patent publication US20080020059A1, “COMPOSITIONS AND METHODS FOR TOPICAL TREATMENT OF SKIN INFECTION” (CHIOU CONSULTING, INC., priority 2003, published 2008).

The subject of the series is acne. The following applies: after 12 weeks of treatment.

Take `CC[C@H]1OC(=O)[C@H](C)[C@@H](O[C@H]2C[C@@](C)(OC)[C@@H](O)[C@H](C)O2)[C@H](C)[C@@H](O[C@@H]2O[C@H](C)C[C@H](N(C)C)[C@H]2O)[C@](C)(O)C[C@@H](C)C(=O)[C@H](C)[C@@H](O)[C@]1(C)O` [erythromycin]: the “patients showing satisfactory responses” value is “about 50%”.
